Where two headings read alike, the source gives them in different places.
System: Escherichia coli (ATCC25922) or Staphylococcus aureus (ATCC25923)
Assay: Antibacterial MIC, microdilution method in Mueller-Hinton medium
Type: cell-based
Conditions: for MIC: Escherichia coli, 18 h, read-out: Potency (MIC)
Method in brief: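 Two-fold serial dilutions from 64 to 0.5 μg/ml, in duplicate, by broth microdilution in Mueller-Hinton medium (NCCLS M7-A5). MIC taken as the lowest concentration preventing visible growth after 18 h at 35° C.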

[1] = MIC in E. coli or S. aureus, two-fold serial dilutions 64 to 0.5 μg/ml in duplicate, 18 hours of incubation at 35° C.

SMILES | MIC [µg/mL] | MIC [1] [µg/mL] | other results
CC(=O)c1ccc(Nc2nc(N(CCN)CCN)nc(N3C[C@H](N)C[C@H](N)C3)n2)cc1 [1-{4-[4-[Bis-(2-amino-ethyl)-amino]-6-((3R,5S)-3,5-diamino-piperidin-1-yl)-[1,3,5]triazin-2-ylamino]-phenyl}-ethanone] | < 64 | – | –
Cc1cc(=O)oc2cc(Nc3nc(N4C[C@H](N)C[C@H](N)C4)nc(N4C[C@@H](N)C[C@@H](O)C4)n3)ccc12 [7-[4-((3S,5R)-3-Amino-5-hydroxy-piperidin-1-yl)-6-((3R,5S)-3,5-diamino-piperidin-1-yl)-[1,3,5]triazin-2-ylamino]-4-methyl-chromen-2-one] | – | > 64 | –
NC[C@@H]1C[C@H](N)CN1c1nc(Nc2ccc(C(=O)Oc3ccccc3)c(O)c2)nc(N2C[C@H](N)C[C@H](N)C2)n1 [4-[4-((2S,4S)-4-Amino-2-aminomethyl-pyrrolidin-1-yl)-6-((3R,5S)-3,5-diamino-piperidin-1-yl)-[1,3,5]triazin-2-ylamino]-2-hydroxy-benzoic acid phenyl ester] | < 16 | – | –
CC1=NN(c2ccc(Nc3nc(N4C[C@H](N)C[C@H](N)C4)nc(N4C[C@H](N)C[C@H](N)C4)n3)cc2)C(=O)C1CCO (stereo partly drawn) [N-{4-[4-(2-hydroxy-ethyl)-3-methyl-5-oxo-4,5-dihydro-pyrazol-1-yl]-phenyl}-4,6-Bis-((3R,5S)-3,5-diamino-piperidin-1-yl)-[1,3,5]triazine-2-amine] | – | > 64 | –
Cc1cccc(NC(=O)c2ccc(Nc3nc(N4CCCCC4)nc(N4CCCCC4)n3)cc2O)n1.Cl [N-[3-hydroxy-4-(6-methyl-pyridin-2-ylcarbamoyl)-phenyl]-4,6-Bis-((3R,5S)-3,5-diamino-piperidin-1-yl)-[1,3,5]triaazine-2-amine] | – | < 64 | –
CC(=O)c1ccc(Nc2nc(N3C[C@H](N)C[C@H](N)C3)nc(N3C[C@H](CN)C[C@H](CN)C3)n2)cc1 [1-{4-[4-((3S,5R)-3,5-Bis-(aminomethyl)-piperidin-1-tl)-6-((3R,5S)-3,5-diamino-piperidin-1-l)-[1,3,5]triazin-2-ylamino]-phenyl}-ethanone] | – | – | Potency (MIC) [1]: − (− means MIC>64 μg/ml in E. coli or S. aureus)
Nc1cccc(NC(=O)CC(=O)c2ccc(Nc3nc(N4C[C@H](N)C[C@H](N)C4)nc(N4C[C@H](N)C[C@H](N)C4)n3)cc2)c1 [N-{4-[2-(3-amino-phenylcarbamoyl)-acetyl]-phenyl}-4,6-Bis-((3R,5S)-3,5-diamino-piperidin-1-yl)-[1,3,5]triazine-2-amine] | > 64 | – | –
Cl.N[C@@H]1C[C@H](N)CN(c2nc(Nc3cccc(C(F)(F)F)c3)nc(N3C[C@H](N)C[C@H](N)C3)n2)C1 [N-(3-trifluoromethyl-phenyl)-4,6-Bis-((3R,5S)-3,5-diamino-piperidin-1-yl)-[1,3,5]triazine-2-amine] | – | < 64 | –
N[C@@H]1C[C@H](N)CN(c2nc(Nc3ccc(S(=O)(=O)c4ccc([N+](=O)[O-])cc4)cc3)nc(N3C[C@H](N)C[C@H](N)C3)n2)C1 [N-[4-(4-nitro-benzenesulfonyl)-phenyl]-4,6-Bis((3R,5S)-3,5-diamino-piperidin-1-yl)-[1,3,5]triazine-2-amine] | < 64 | – | –
N[C@@H]1C[C@H](N)CN(c2nc(Nc3ccc([N+](=O)[O-])cc3)nc(N3C[C@H](N)C[C@H](N)C3)n2)C1 [N-(4-nitro-phenyl)-4,6-Bis-((3R,5S)-3,5-diamino-piperidin-1-yl)-[1,3,5]triazine-2-amine] | < 64 | – | –
N[C@@H]1C[C@H](N)CN(c2nc(Nc3ccc(NC(=O)c4ccc(Cl)cc4)c(O)c3)nc(NC3CCNCC3)n2)C1 | < 16 | – | –
CNC(=S)NNc1nc(N2C[C@H](N)C[C@H](N)C2)nc(N2C[C@H](N)C[C@H](N)C2)n1 [N-(3-methyl-thioureido)-4,6-Bis-((3R,5S)-3,5-diamino-piperidin-1-yl)-[1,3,5]triazine-2-amine] | > 64 | – | –
Cl.N[C@@H]1C[C@H](N)CN(c2nc(N3C[C@H](N)C[C@H](N)C3)nc(-n3cnc4ccccc43)n2)C1 [1-(4,6-Bis-((3R,5S)-3,5-diamino-piperidin-1-yl)-[1,3,5]triazin-2-yl)-1H-benzoimidazole] | – | > 64 | –
N[C@@H]1C[C@H](N)CN(c2nc(Nc3ccc(NC(=O)c4cccnc4O)c(O)c3)nc(N3C[C@H](N)C[C@H](N)C3)n2)C1 [N-{3-hydroxy-4-[(2-hydroxy-pyridine-3-carbonyl)-amino]-phenyl}-4,6-Bis-((3R,5S)-3,5-diamino-piperidin-1-yl)-[1,3,5]triazine-2-amine] | < 16 | – | –
Cl.NS(=O)(=O)c1ccc(NC(=O)CC(=O)c2ccc(Nc3nc(N4CCCCC4)nc(N4CCCCC4)n3)cc2)cc1 [N-{4-[2-(4-sulfamoyl-phenylcarbamoyl)-acetyl]-phenyl}-44,6-Bis-((3R,5S)-3,5-diamino-piperidin-1-yl)-[1,3,5]triazine-2-amine] | – | < 64 | –
CC(C)CC(=O)Nc1ccc(Nc2nc(N3CCCCC3)nc(N3CCCCC3)n2)cc1O.Cl [N-[3-hydroxy-4-(3-methyl-butyrylamino)-phenylk]-4,6-Bis-((3R,5S)-3,5-diamino-piperidin-1-yl)-[1,3,5]triazine-2-amine] | – | < 64 | –
Cc1ccc(S(=O)(=O)N(C)C)cc1Nc1nc(N2C[C@H](N)C[C@H](N)C2)nc(N2C[C@H](N)C[C@H](N)C2)n1 [N-(5-dimethylsulfamoyl-2-methyl-phenyl)-4,6-Bis-((3R,5S)-3,5-diamino-piperidin-1-yl)-[1,3,5]triazine-2-amine] | – | > 64 | –
N[C@@H]1C[C@H](N)CN(c2nc(Nc3ccc(NC(=O)c4cc(Br)ccc4O)cc3)nc(N3C[C@H](N)C[C@H](N)C3)n2)C1 [N-[4-(5-bromo-2-hydroxy-benzoylamino)-phenyl]-4,6-Bis-((3R,5S)-3,5-diamino-piperidin-1-yl)-[1,3,5]triazine-2-amine] | < 16 | – | –
N[C@@H]1C[C@H](N)CN(c2nc(Nc3ccc(NS(=O)(=O)CCCCl)c(O)c3)nc(N3C[C@H](N)C[C@H](N)C3)n2)C1 [N-[4-(3-chloro-propane-1-sulfonylamino)-3-hydroxy-phenyl]-4,6-Bis-((3R,5S)-3,5-diamino-piperidin-1-yl)-[1,3,5]triazine-2-amine] | > 64 | – | –
N#CCCNS(=O)(=O)c1ccc(Cl)c(Nc2nc(N3C[C@H](N)C[C@H](N)C3)nc(N3C[C@H](N)C[C@H](N)C3)n2)c1 [N-[2-chloro-5-(2-cyano-ethylsulfamoyl)-phenyl]-4,6-Bis-((3R,5S)-3,5-diamino-piperidin-1-yl)-[1,3,5]triazine-2-amine] | > 64 | – | –
N[C@@H]1C[C@H](N)CN(c2nc(Nc3ccc(NC(=O)CCCC[C@@H]4SC[C@H]5NC(=O)N[C@@H]45)c(O)c3)nc(N3C[C@H](N)C[C@H](N)C3)n2)C1 [5-((3aR,4S,6aS)-2-Oxo-hexahydro-thieno[3,4-d]imidazol-4-yl)-pentanoicacid {4-[4-((3R,5S)-3,5-diamino-piperidin-1-yl)-6-((3S,5R)-3,5-diamino-piperidin-1-yl)-[1,3,5]triazin-2-ylamino]-2-hydroxy-phenyl}-amide] | > 64 | – | –
Cc1ccc(C(=O)Nc2ccc(Nc3nc(N4C[C@H](N)C[C@H](N)C4)nc(N4CC[C@H](O)[C@@H]4CN)n3)cc2O)cc1 [N-{4-[4-((2S,3S)-2-Aminomethyl-3-hydroxy-pyrrolidin-1-yl)-6-((3R,5S)-3,5-diamino-piperidin-1-yl)-[1,3,5]triazin-2-ylamino]-2-hydroxy-phenyl}-4-methyl-benzamide] | < 16 | – | –
Cc1cccc(C(=O)Nc2cccc(Nc3nc(N4C[C@H](N)C[C@H](N)C4)nc(N4C[C@H](N)C[C@H](N)C4)n3)c2)c1O [N-[3-(2-hydroxy-3-methyl-benzoylamino)-phenyl]-4,6-Bis-((3R,5S)-3,5-diamino-piperidin-1-yl)-[1,3,5]triazine-2-amine] | < 16 | – | –
NCc1ccc(NC(=O)CC(=O)c2ccc(Nc3nc(N4C[C@H](N)C[C@H](N)C4)nc(N4C[C@H](N)C[C@H](N)C4)n3)cc2)cc1 [N-{4-[2-(4-aminomethyl-phenylcarbamoyl)-acetyl]-phenyl}-4,6-Bis-((3R,5S)-3,5-diamino-piperidin-1-yl)-[1,3,5]triazine-2-amine] | > 64 | – | –
Cc1ccc(S(=O)(=O)N(Cc2ccccc2)c2ccc(NC(=O)c3ccc(Nc4nc(N5C[C@H](N)C[C@H](N)C5)nc(N5C[C@H](N)C[C@H](N)C5)n4)cc3O)cc2O)cc1 [N-(4-{4-[benzyl-(toluene-4-sulfonyl)-amino]-3-hydroxy-phenylcarbamoyl)-3-hydroxy-phenyl)-4,6-Bis-((3R,5S)-3,5-diamino-piperidin-1-yl)-[1,3,5]triazine-2-amine] | < 16 | – | –
N[C@@H]1C[C@H](N)CN(c2nc(Nc3ccc(NC(=O)c4cccc(O)c4O)c(O)c3)nc(N3C[C@H](N)C[C@H](N)C3)n2)C1 [N-[4-(2,3-dihydroxy-benzoylamino)-3-hydroxy-phenyl]-4,6-Bis-((3R,5S)-3,5-diamino-piperidin-1-yl)-[1,3,5]triazine-2-amine] | < 16 | – | –
Cl.O=[N+]([O-])c1ccc(S(=O)(=O)c2ccc(Nc3nc(N4CCCCC4)nc(N4CCCCC4)n3)cc2)cc1 [N-[4-((2,4-dimethoxy-benzoylamino)-3-hydroxy-phenyl]-4,6-Bis-((3R,5S)-3,5-diamino-piperidin-1-yl)-[1,3,5]triazine-2-amine] | – | < 16 | –
CC(=O)Nc1ccc(Nc2nc(N3C[C@H](N)C[C@H](N)C3)nc(N3C[C@H](N)C[C@H](N)C3)n2)cc1 [drawing 178, N-(4-acetylamino-phenyl)-4,6-Bis-((3R,5S)-3,5-diamino-piperidin-1-yl)-[1,3,5]triazine-2-amine] | – | > 64 | –
NC[C@H]1[C@@H](O)CCN1c1nc(Nc2ccc(C(=O)CC(=O)Nc3ccccc3Cl)cc2)nc(N2C[C@H](N)C[C@H](N)C2)n1 [3-{4-[4-((2S,3S)-2-Aminomethyl-3-hydroxy-pyrrolidin-1-yl)-6-((3R,5S)-3,5-diamino-piperidin-1-yl)-[1,3,5]triazin-2-ylamino]-phenyl}-N-(2-chloro-phenyl)-3-oxo-propionamide] | < 64 | – | –

Source: patent US7223759B2, “Antibacterial 3,5-diaminopiperidine-substituted aromatic and heteroaromatic compounds” (Anadys Pharmaceuticals, Inc., priority 2003, dated 2007)
